“Also recorded” adds a separate entry of the source.
Key:
[1] = system: GFP; experiment: Western blot of GFP expressed from pEF1-GFP in HeLa cells; assay type: cell-based; conditions: 48 h
Method: Figure 5 Triptolide specifically reduces steady-state level of Tat protein. (A) HeLa cells were transfected with pEF1-FLAG-Tat in the presence of increasing concentrations of triptolide. Cells were harvested 48 h post-transfection, and protein expression levels were determined by Western blotting. (B) HeLa cells were transfected either with pEF1-GFP (left) or pEF1-Tat-GFP (right) in the presence of increasing concentrations of triptolide. Cells were harvested 48 h post-transfection, and protein expression levels were determined by Western blotting.
Cells were washed with phosphate buffered saline (PBS) and lysed with radio immunoprecipitation assay lysis buffer supplemented with complete mini protease inhibitor cocktail (Roche) at 4°C for 1 h. Proteins from cell lysates were separated by SDS-PAGE and transferred to polyvinylidene difluoride membranes. After overnight incubation with primary antibodies at 4°C, each blot was probed with horseradish peroxidase-conjugated secondary antibody. Immunoreactive signals were detected with an enhanced chemiluminescence substrate (Thermo Scientific) using an AlphaEaseH FC Imaging System (Alpha Innotech Corporation).

[2] = system: TNF-α-induced HIV-1 LTR activation; experiment: HIV-1 LTR-luciferase reporter assay, TNF-α-induced, TZM-bl cells; assay type: cell-based; conditions: TNF-α 10 ng/mL, 24 h
Method: The effect of the test compounds on HIV-1 LTR promoter activity was evaluated using the luciferase reporter systems in both TZM-bl and Jurkat cells. TZM-bl cells seeded in 96-well plates (2 × 10^4 cells/well) were treated with either 10 ng/mL TNF-α (Sigma-Aldrich) or co-transfected with pEF1-Tat and pRL-TK (for transfection efficiency normalization) using Lipofectamine 2000 (Invitrogen). The cells were then cultured in the presence of various concentrations of the test compounds. After 24 h (TNF-α stimulation) or 48 h (Tat transfection) of incubation, luciferase activity was determined from cell lysates using the StedyGlo reagent (for TNF-α treated cells) or a dual luciferase assay system (Promega, for transfected cells) as recommended by the manufacturer.

CC(C)[C@]12O[C@H]1[C@@H]1O[C@]13[C@]1(O[C@H]1C[C@H]1C4=C(CC[C@@]13C)C(=O)OC4)[C@@H]2O [triptolide]
expression level of GFP [1]: not reduced
effect on TNF-α-induced luciferase production [2]: slightly enhance TNF-α-induced luciferase production; also recorded: not active

Source: paper PMC4205289, “Triptolide inhibits human immunodeficiency virus type 1 replication by promoting proteasomal degradation of Tat protein” (Retrovirology, 2014)
